# Patent publication US20250099634A1, “METHOD OF TREATING CANCER” (Novartis AG, priority 2023, published 2025)
# How the values were obtained:
# [1] = system: Grade 2 and Grade 3 advanced GEP-NET; experiment: NETTER-2 Progression-Free Survival (PFS), central review using RECIST 1.1; format: in vivo, human; settings: Full Analysis Set; for Kaplan-Meier event-free estimates (95% CI): PFS
# Method: The primary efficacy end-point is PFS as measured by objective tumor response, which is determined by RECIST criteria, Version 1.1 (Eisenhauer, et al., 2009). Tumor response will be assessed locally and centrally.
# It is recommended that for each patient identical acquisition and reconstruction protocols be used at all time-points. Central, blinded, real-time IRC (Independent Review Committee) assessment will be conducted for determining progressive disease. Changes from randomization date will be assessed at week 16±1, week 24±1 and then every 12±1 weeks until the PFS primary analysis End-Point has been reached, then until Week 72 after randomization, unless the patient progresses or dies.
# The primary endpoint of the study is progression-free survival (PFS), defined as the time from the date of randomization to the date of the first documented progression or death due to any cause. PFS will be assessed via central review according to RECIST 1.1.
# The stratification will be based on following randomization stratification factors (grade: G2 vs. G3; and tumor origin: pNET vs other origin).
# Analyses will be based on the FAS population according to the randomized treatment group and strata assigned at randomization. The PFS distribution will be estimated using the Kaplan-Meier method, and Kaplan-Meier curves, median and associated 95% confidence intervals will be presented for each treatment group. The hazard ratio for PFS will be calculated, along with its 95% confidence interval, from a stratified Cox model using the same stratification factors as for the log-rank test.
# [2] = NETTER-2 deaths (Safety Set); format: in vivo, human
# [3] = NETTER-2 worst post-baseline biochemistry abnormalities based on CTC grades (Safety Set); format: in vivo, human; settings: randomized treatment period; for Worst post-baseline abnormality: Alanine Aminotransferase (U/L)-Increase / Worst post-baseline abnormality: Albumin (g/L)-Decrease / Worst post-baseline abnormality: Alkaline Phosphatase (U/L)-Increase / Worst post-baseline abnormality: Aspartate Aminotransferase (U/L)-Increase / Worst post-baseline abnormality: Bilirubin (umol/L)-Increase / Worst post-baseline abnormality: Calcium Corrected (mmol/L)-Increase / Worst post-baseline abnormality: Creatinine (umol/L)-Increase / Worst post-baseline abnormality: Potassium (mmol/L)-Decrease / Worst post-baseline abnormality: Potassium (mmol/L)-Increase / Worst post-baseline abnormality: Sodium (mmol/L)-Decrease / Worst post-baseline abnormality: Sodium (mmol/L)-Increase: Safety Set
# From the text: (§1) The laboratory assessments require that blood samples for hematology and blood chemistry, and a urine sample for urinalysis are taken. Laboratory assessments will be performed at the investigational site.
# (§2) Blood tests performed 4 weeks after any treatment cannot serve as baseline values for the next treatment.
# (§3) All laboratory data will be listed by treatment group, subject, and visit/time and if normal ranges are available abnormalities will be flagged. Summary statistics will be provided by treatment and visit/time. Shift tables using the low/normal/high/(low and high) classification will be used to compare baseline to the worst on-treatment value.
# (§4) Grading of laboratory values will be assigned programmatically as per NCI Common Terminology Criteria for Adverse Events (CTCAE) version 5.0 or current version. The calculation of CTCAE grades will be based on the observed laboratory values only, clinical assessments will not be taken into account.
# (§5) The following summaries will be generated separately for hematology, and biochemistry tests: • 1. Listing of all laboratory data with values flagged to show the corresponding CTCAE grades if applicable and the classifications relative to the laboratory normal ranges • 2. For laboratory tests where grades are defined by CTCAE, • 3. Worst post-baseline CTCAE grade (regardless of the baseline status). Each subject will be counted only once for the worst grade observed post-baseline. • 4. Shift tables using CTCAE grades to compare baseline to the worst on-treatment value • 5. For laboratory tests where grades are not defined by CTCAE, • 6. Shift tables using the low/normal/high/(low and high) classification to compare baseline to the worst on-treatment value.
# [4] = NETTER-2 worst post-baseline hematology abnormalities based on CTC grades (Safety Set); format: in vivo, human; settings: randomized treatment period; for Worst post-baseline abnormality: Hemoglobin (g/L)-Decrease / Worst post-baseline abnormality: Hemoglobin (g/L)-Increase / Worst post-baseline abnormality: Leukocytes (10E9/L)-Decrease / Worst post-baseline abnormality: Leukocytes (10E9/L)-Increase / Worst post-baseline abnormality: Lymphocytes (10E9/L)-Decrease / Worst post-baseline abnormality: Lymphocytes (10E9/L)-Increase / Worst post-baseline abnormality: Neutrophils (10E9/L)-Decrease / Worst post-baseline abnormality: Platelets (10E9/L)-Decrease: Safety Set
# From the text: as §1, §2, §3, §4, §5
# [5] = NETTER-1 control arm, high dose (60 mg); cited from earlier work
compound,measurement,setting,value
"C[C@@H](O)[C@@H]1NC(=O)[C@H](CCCCN)NC(=O)[C@@H](Cc2c[nH]c3ccccc23)NC(=O)[C@H](Cc2ccccc2)NC(=O)[C@@H](NC(=O)[C@H](N)Cc2ccccc2)CSSC[C@@H](C(=O)N[C@H](CO)[C@@H](C)O)NC1=O [Octreotide LAR, octreotide]",Kaplan-Meier event-free estimates (95% CI),[1]; 4 months,"73.5 (61.2, 82.4) %"
same,Kaplan-Meier event-free estimates (95% CI),[1]; 6 months,"64.5 (51.8, 74.6) %"
same,Kaplan-Meier event-free estimates (95% CI),[1]; 9 months,"46.0 (33.4, 57.7) %"
same,Kaplan-Meier event-free estimates (95% CI),[1]; 12 months,"42.4 (30.0, 54.3) %"
same,Kaplan-Meier event-free estimates (95% CI),[1]; 15 months,"36.4 (24.3, 48.5) %"
same,Kaplan-Meier event-free estimates (95% CI),[1]; 18 months,"29.2 (17.7, 41.7) %"
same,Kaplan-Meier event-free estimates (95% CI),[1]; 24 months,"19.5 (9.1, 32.7) %"
same,PFS Events,[1],46 (61.3) n (%)
same,PFS events: Deaths,[1],5 (6.7) n (%)
same,PFS events: Progression,[1],41 (54.7) n (%)
same,Median PFS (95% CI),"[1]; central review, RECIST 1.1","8.5 (7.7, 13.8) months"
same,PFS 25th percentile (95% CI),"[1]; central review, RECIST 1.1","3.9 (3.7, 5.7) months"
same,PFS 75th percentile (95% CI),"[1]; central review, RECIST 1.1","19.3 (13.8, NE) months"
same,Median PFS (95% CI),"[1]; central review, RECIST 1.1, listed as High-dose Octreotide",8.5 months
same,Median PFS (95% CI),"[1]; central review, RECIST 1.1, listed as high-dose Octreotide","8.5 (7.7, 13.8) months"
same,Number of Subjects who Died (Overall),[2]; Safety Set,14 (19.2) n (%)
same,"Number of Subjects who Died (Overall), primary reason Adverse Event",[2]; Safety Set,1 (1.4) n (%)
same,"Number of Subjects who Died on-treatment in cross-over period (within 30 days of last dose), primary reason Disease under Study",[2]; Safety Set,1 (1.4) n (%)
same,"Number of Subjects who Died on-treatment in randomized treatment period (within 30 days of last dose), primary reason Disease under Study",[2]; Safety Set,4 (5.5) n (%)
same,Number of subjects who died in the post-treatment follow up period,[2]; Safety Set,9 (12.3) n (%)
same,"Number of subjects who died in the post-treatment follow up period, primary reason Adverse Event",[2]; Safety Set,1 (1.4) n (%)
same,"Number of subjects who died in the post-treatment follow up period, primary reason Disease under Study",[2]; Safety Set,8 (11.0) n (%)
same,cause of death: adverse event,[2]; during the study,1.4%
same,subjects died during the study,[2]; during the study,19.2%
same,subjects died within 30 days after the last dose,[2]; randomized treatment period,5.5%
same,Worst post-baseline abnormality: Alanine Aminotransferase (U/L)-Increase,[3]; All grades (CTCAE v5.0),38 (52.1) n (%)
same,Worst post-baseline abnormality: Albumin (g/L)-Decrease,[3]; All grades (CTCAE v5.0),17 (23.3) n (%)
same,Worst post-baseline abnormality: Alkaline Phosphatase (U/L)-Increase,[3]; All grades (CTCAE v5.0),40 (54.8) n (%)
same,Worst post-baseline abnormality: Aspartate Aminotransferase (U/L)-Increase,[3]; All grades (CTCAE v5.0),40 (54.8) n (%)
same,Worst post-baseline abnormality: Bilirubin (umol/L)-Increase,[3]; All grades (CTCAE v5.0),17 (23.3) n (%)
same,Worst post-baseline abnormality: Calcium Corrected (mmol/L)-Increase,[3]; All grades (CTCAE v5.0),8 (11.0) n (%)
same,Worst post-baseline abnormality: Creatinine (umol/L)-Increase,[3]; All grades (CTCAE v5.0),15 (20.5) n (%)
same,Worst post-baseline abnormality: Potassium (mmol/L)-Decrease,[3]; All grades (CTCAE v5.0),10 (13.7) n (%)
same,Worst post-baseline abnormality: Potassium (mmol/L)-Increase,[3]; All grades (CTCAE v5.0),16 (21.9) n (%)
same,Worst post-baseline abnormality: Sodium (mmol/L)-Decrease,[3]; All grades (CTCAE v5.0),12 (16.4) n (%)
same,Worst post-baseline abnormality: Sodium (mmol/L)-Increase,[3]; All grades (CTCAE v5.0),6 (8.2) n (%)
same,Worst post-baseline abnormality: Alanine Aminotransferase (U/L)-Increase,[3]; Grade 3/4 (CTCAE v5.0),3 (4.1) n (%)
same,Worst post-baseline abnormality: Albumin (g/L)-Decrease,[3]; Grade 3/4 (CTCAE v5.0),1 (1.4) n (%)
same,Worst post-baseline abnormality: Alkaline Phosphatase (U/L)-Increase,[3]; Grade 3/4 (CTCAE v5.0),3 (4.1) n (%)
same,Worst post-baseline abnormality: Aspartate Aminotransferase (U/L)-Increase,[3]; Grade 3/4 (CTCAE v5.0),5 (6.8) n (%)
same,Worst post-baseline abnormality: Bilirubin (umol/L)-Increase,[3]; Grade 3/4 (CTCAE v5.0),4 (5.5) n (%)
same,Worst post-baseline abnormality: Calcium Corrected (mmol/L)-Increase,[3]; Grade 3/4 (CTCAE v5.0),1 (1.4) n (%)
same,Worst post-baseline abnormality: Creatinine (umol/L)-Increase,[3]; Grade 3/4 (CTCAE v5.0),1 (1.4) n (%)
same,Worst post-baseline abnormality: Potassium (mmol/L)-Decrease,[3]; Grade 3/4 (CTCAE v5.0),2 (2.7) n (%)
same,Worst post-baseline abnormality: Potassium (mmol/L)-Increase,[3]; Grade 3/4 (CTCAE v5.0),3 (4.1) n (%)
same,Worst post-baseline abnormality: Sodium (mmol/L)-Decrease,[3]; Grade 3/4 (CTCAE v5.0),1 (1.4) n (%)
same,Worst post-baseline abnormality: Sodium (mmol/L)-Increase,[3]; Grade 3/4 (CTCAE v5.0),0 n (%)
same,Grade 3/4 biochemical lab abnormality: GGT increase,[3],28.8%
same,Grade 3/4 biochemical lab abnormality: aspartate aminotransferase increase,[3],6.8%
same,Grade 3/4 biochemical lab abnormality: bilirubin increase,[3],5.5%
same,Worst post-baseline abnormality: Hemoglobin (g/L)-Decrease,[4]; All grades (CTCAE v5.0),42 (57.5) n (%)
same,Worst post-baseline abnormality: Hemoglobin (g/L)-Increase,[4]; All grades (CTCAE v5.0),2 (2.7) n (%)
same,Worst post-baseline abnormality: Leukocytes (10E9/L)-Decrease,[4]; All grades (CTCAE v5.0),15 (20.5) n (%)
same,Worst post-baseline abnormality: Leukocytes (10E9/L)-Increase,[4]; All grades (CTCAE v5.0),0 n (%)
same,Worst post-baseline abnormality: Lymphocytes (10E9/L)-Decrease,[4]; All grades (CTCAE v5.0),45 (61.6) n (%)
same,Worst post-baseline abnormality: Lymphocytes (10E9/L)-Increase,[4]; All grades (CTCAE v5.0),3 (4.1) n (%)
same,Worst post-baseline abnormality: Neutrophils (10E9/L)-Decrease,[4]; All grades (CTCAE v5.0),9 (12.3) n (%)
same,Worst post-baseline abnormality: Platelets (10E9/L)-Decrease,[4]; All grades (CTCAE v5.0),15 (20.5) n (%)
same,Worst post-baseline abnormality: Hemoglobin (g/L)-Decrease,[4]; Grade 3/4 (CTCAE v5.0),2 (2.7) n (%)
same,Worst post-baseline abnormality: Hemoglobin (g/L)-Increase,[4]; Grade 3/4 (CTCAE v5.0),0 n (%)
same,Worst post-baseline abnormality: Leukocytes (10E9/L)-Decrease,[4]; Grade 3/4 (CTCAE v5.0),0 n (%)
same,Worst post-baseline abnormality: Leukocytes (10E9/L)-Increase,[4]; Grade 3/4 (CTCAE v5.0),0 n (%)
same,Worst post-baseline abnormality: Lymphocytes (10E9/L)-Decrease,[4]; Grade 3/4 (CTCAE v5.0),2 (2.7) n (%)
same,Worst post-baseline abnormality: Lymphocytes (10E9/L)-Increase,[4]; Grade 3/4 (CTCAE v5.0),0 n (%)
same,Worst post-baseline abnormality: Neutrophils (10E9/L)-Decrease,[4]; Grade 3/4 (CTCAE v5.0),0 n (%)
same,Worst post-baseline abnormality: Platelets (10E9/L)-Decrease,[4]; Grade 3/4 (CTCAE v5.0),0 n (%)
same,Grade 3/4 hematologic lab abnormality: lymphocytes decrease,[4],2.7%
same,side effects,[5],without notable side effects
